Measured values from patent US5411971A, “N-alkylenepiperidino compounds, their enantiomers and pharmaceutical compositions” (Elf Sanofi, priority 1991, dated 1995).
Structures can show the parent of a compound that is named as a salt.

Assays:
substance P binding = test: Antagonism of binding of substance P (rat cortex membranes or IM9 cells, not stated which); details: preparation (rat cortex membranes or IM9 lymphoblastic cells) not given; read-out: Ki, antagonises the binding of substance P
[1] = molecular target: T1, neurokinin A binding, rat duodenum membranes (Rattus norvegicus, UniProt P16610); test: Antagonism of binding to NKA (neurokinin A), rat duodenum membranes; details: read-out: Ki, antagonises the binding of neurokinin A
T1 construct: rat duodenum membranes; from tissue; host or cells: rat duodenum membranes
T1 sequence (P16610 1-390): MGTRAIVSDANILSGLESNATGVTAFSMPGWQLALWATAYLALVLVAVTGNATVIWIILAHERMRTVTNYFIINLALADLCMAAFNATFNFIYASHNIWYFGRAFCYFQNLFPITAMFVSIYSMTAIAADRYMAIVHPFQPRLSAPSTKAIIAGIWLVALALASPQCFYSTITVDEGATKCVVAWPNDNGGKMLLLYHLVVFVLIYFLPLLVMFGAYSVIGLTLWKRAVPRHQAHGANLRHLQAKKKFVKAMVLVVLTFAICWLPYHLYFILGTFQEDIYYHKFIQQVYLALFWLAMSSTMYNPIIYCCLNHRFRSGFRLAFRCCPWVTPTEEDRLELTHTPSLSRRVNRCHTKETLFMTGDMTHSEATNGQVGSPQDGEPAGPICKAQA

[2] = molecular target: T2, eledoisin binding, rat membranes (Rattus norvegicus, UniProt P16177); test: Antagonism of binding to eledoisin, rat membranes; details: read-out: Ki, antagonises the binding of eledoisin
T2 construct: rat membranes; from tissue; brain cortex inferred from the cited Foster et al. 1988
T2 sequence (P16177 1-452): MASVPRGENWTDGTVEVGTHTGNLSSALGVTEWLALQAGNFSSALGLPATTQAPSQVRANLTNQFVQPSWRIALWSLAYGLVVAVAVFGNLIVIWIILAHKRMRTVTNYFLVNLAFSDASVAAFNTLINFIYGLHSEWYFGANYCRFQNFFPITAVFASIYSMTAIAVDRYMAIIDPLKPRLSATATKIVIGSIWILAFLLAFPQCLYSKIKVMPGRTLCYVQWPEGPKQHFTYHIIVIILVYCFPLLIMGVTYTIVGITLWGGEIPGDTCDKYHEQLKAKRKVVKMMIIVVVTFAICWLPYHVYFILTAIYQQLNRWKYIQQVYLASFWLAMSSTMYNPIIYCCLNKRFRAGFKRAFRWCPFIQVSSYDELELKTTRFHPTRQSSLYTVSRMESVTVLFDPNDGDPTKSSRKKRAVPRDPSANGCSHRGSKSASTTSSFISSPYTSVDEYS
Description: Foster et al., Br. J. Pharmacol., 1988, 94, 602-608.
Eledoisin is a peptide of batrachian origin which is equivalent to neurokinin B.

## O=C(NCC(CCN1CCC(Sc2ccccn2)CC1)c1ccc(Cl)c(Cl)c1)c1ccc(Cl)cc1Cl (stereo not drawn) [Compound 4]
Substance P binding
  Ki: 41 nM

## CC(=O)N(c1ccccc1)C1CCN(CCC(CN(C)C(=O)c2ccccc2)c2ccc(Cl)c(Cl)c2)CC1 (stereo not drawn) [Compound 8, N-[4-(N'-4-Acetylanilino-1-piperidinyl)-2-(3,4-dichlorophenyl)butyl]-N-methylbenzamide hydrochloride]
[1]
  Ki: 5.5 nM

## O=C(NCC(CCN1CCC(Nc2ccccc2)CC1)c1ccc(Cl)c(Cl)c1)c1ccc(F)c2ccccc12 (stereo not drawn) [Compound 9]
[2]
  Ki: 400 nM
